Source: paper PMC10560226, “Triepoxide formation by a flavin-dependent monooxygenase in monensin biosynthesis” (Nature Communications, 2023)

Key:
[1] = biological target: MonCI (Streptomyces cinnamonensis); test: ITC; MicroCal ITC200, 25 °C, 100 mM phosphate pH 8.0; MonCI in the cell (60 μM with wild-type MonACPX 1.2 mM in the syringe; 100 μM with control ACP 1.0 mM in the syringe); 20 injections; one site model; performed twice
MonCI [2] = biological target: T1, MonCI (Streptomyces virginiae, UniProt Q846W9); test: X-ray crystal structure, […] Å; type: binding; conditions: noncovalently bound, co-purified; isoalloxazine ring in "in" conformation; pH 6.5-6.8 crystals
T1 construct: gene monC1; N-terminal 6xHis-tag, pCold vector, E. coli BL21-AI; model covers residues 4-480 (chain A), last residue 496
T1 sequence (Q846W9 1-496): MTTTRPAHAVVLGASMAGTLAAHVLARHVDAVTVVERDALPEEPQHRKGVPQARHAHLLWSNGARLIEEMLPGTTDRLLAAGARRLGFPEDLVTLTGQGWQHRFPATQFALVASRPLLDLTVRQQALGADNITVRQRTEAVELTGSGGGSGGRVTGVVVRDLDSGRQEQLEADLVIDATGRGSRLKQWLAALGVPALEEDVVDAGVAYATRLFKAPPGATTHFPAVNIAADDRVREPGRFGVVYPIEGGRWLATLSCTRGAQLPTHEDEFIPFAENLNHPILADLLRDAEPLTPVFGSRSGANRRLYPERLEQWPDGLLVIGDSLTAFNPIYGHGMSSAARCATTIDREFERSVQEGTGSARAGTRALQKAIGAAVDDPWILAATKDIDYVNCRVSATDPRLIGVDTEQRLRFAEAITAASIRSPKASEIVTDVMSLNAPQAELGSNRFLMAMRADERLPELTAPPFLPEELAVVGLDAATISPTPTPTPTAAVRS

MonCI [3] = biological target: T1, MonCI; test: LC-MS of epoxide products; type: biochemical; conditions: 160 µM FHB, 15 µM MonCI, 80 µM FAD, Fre, NADH or NADH regeneration (glucose dehydrogenase), 50 mM Tris pH 8.0, 300 mM NaCl, 30 °C, 6 h
MonCI [4] = biological target: T1, MonCI; test: HPLC of epoxide product; type: biochemical; conditions: electron donor, 4 mM; FHB 160 µM, Tris pH 8.0, 30 °C, 6 h

## wild-type apo-MonACPX (natural protein)
[1]
  Kd: 10.7 µM

## Cc1cc2nc3c(=O)[nH]c(=O)nc-3n(C[C@H](O)[C@H](O)[C@H](O)COP(=O)(O)OP(=O)(O)OC[C@H]3O[C@@H](n4cnc5c(N)ncnc54)[C@H](O)[C@@H]3O)c2cc1C [FAD]
MonCI [2]
  X-ray crystal structure, 1.9 Å: One FAD coenzyme and one chloride ion were found in each chain

## CC(C)=CCCC(C)=CCCC(C)=CCOC(=O)c1ccc(O)cc1 [FHB, farnesyl 4-hydroxybenzoate]
MonCI [3]
  LC-MS of epoxide products: MonCI can perform multiple epoxidations on the same substrate molecule

## NC(=O)C1=CN([C@@H]2O[C@H](COP(=O)(O)OP(=O)(O)OC[C@H]3O[C@@H](n4cnc5c(N)ncnc54)[C@H](O)[C@@H]3O)[C@@H](O)[C@H]2O)C=CC1 [NADH]
MonCI [4]
  HPLC of epoxide product: MonCI has similar preference for NADH and NADPH

## apo-DEBS ACP2 (domain or fragment)
[1]
  Kd: 49.8 µM
